# In PubChem BioAssay (NCI):
# Where “and” joins values, the source holds several entries; their conditions need not be identical. Equal entries are not always repeated.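 Test compounds were applied to cells in 96-well plates for 48 hours at 5 doses. Here, GI50 denotes the concentration required for 50% inhibition of growth. TGI is the concentration that stops growth completely.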
# Assays:
# Assay in all cases: inhibition of tumour cell growth, NCI panel, 48 h
# [1] = test system: MCF7 breast
# [2] = test system: ACHN renal
# [3] = test system: NCI-H226 lung
# [4] = test system: U251 CNS
# [5] = test system: HCC-2998 colon
# [6] = test system: SF-268 CNS
# [7] = test system: TK-10 renal
# [8] = test system: OVCAR-3 ovarian
# [9] = test system: UACC-257 melanoma
# [10] = test system: HT29 colon
Structure (SMILES),GI50 [1],TGI [1],GI50 [2],TGI [2],GI50 [3],TGI [3],GI50 [4],TGI [4],GI50 [5],TGI [5],GI50 [6],TGI [6],GI50 [7],TGI [7],GI50 [8],TGI [8],GI50 [9],TGI [9],GI50 [10],TGI [10]
CNCc1ccccc1-c1csc([C@@H](C)Nc2nc(C)nc3cc(OC)c(OC)cc23)c1,1.44 µM,3.19 µM,1.33 µM,2.62 µM,13.6 µM,32.7 µM,1.48 µM,3 µM,1.43 µM,2.9 µM,2.66 µM,12.4 µM,1.09 µM,2.52 µM,2.42 µM,8.04 µM,1.82 µM,3.51 µM,1.71 µM,4.33 µM
O=C(Nc1ccc(Nc2ccncc2)cc1)c1ccc([N+](=O)[O-])cc1,3.5 µM,20.5 µM,4.62 µM,19.7 µM,12.1 µM,29.7 µM,2.49 µM,7.12 µM,2.77 µM,12.3 µM,6.79 µM,27.5 µM,11.2 µM,31.3 µM,1.93 µM,3.76 µM,10.5 µM,26.2 µM,3.61 µM,16.5 µM
O=[N+]([O-])c1ccc2[nH]c(=S)[nH]c(=S)c2c1,–,> 100 µM,–,> 100 µM,–,> 100 µM,–,> 100 µM,–,> 100 µM,–,> 100 µM,–,> 100 µM,–,> 100 µM,–,> 100 µM,–,> 100 µM
CSC1=Nc2c(c(C)c(C)n2COC(CO)CO)C2=NC(=O)C(C)N12 (configuration not stated),> 100 µM,> 100 µM,> 100 µM,> 100 µM,> 100 µM,> 100 µM,> 100 µM,> 100 µM,> 100 µM,> 100 µM,> 100 µM,> 100 µM,> 100 µM,> 100 µM,> 100 µM,> 100 µM,> 100 µM,> 100 µM,> 100 µM,> 100 µM
COc1cccc2c1C(=O)c1c(O)c3c(c(O)c1C2=O)C[C@@](O)(C(=O)CO)C[C@@H]3OC1CC(N)CC(C)O1 (some centres not stated),0.00536 µM,3.71 µM and 1.93 µM,0.0175 µM,0.289 µM,0.00987 µM and 0.0723 µM and 0.0435 µM,0.282 µM and 0.132 µM,0.0224 µM and 0.0311 µM,2.2 µM and 0.873 µM,0.117 µM,0.429 µM and 0.619 µM,0.0515 µM,0.461 µM and 0.937 µM,0.396 µM and 0.148 µM,1.55 µM and 3.45 µM,0.102 µM,1.11 µM and 1.22 µM,0.103 µM,0.33 µM and 0.195 µM,0.0296 µM,1.1 µM and 0.809 µM
C/C=C/C(CC(O)(C(F)(F)F)C(F)(F)F)=N/NC(N)=S,–,> 10 µM,–,> 10 µM,–,> 10 µM,–,> 10 µM,–,> 10 µM,–,> 10 µM,–,> 10 µM,–,> 10 µM,–,> 10 µM,–,> 10 µM
Cc1cc(C)c2c(n1)sc1c(Nc3ccc(Cl)cc3)ncnc12,< 0.01 µM,> 100 µM,< 0.01 µM,> 51.2 µM,0.0333 µM,5.67 µM,< 0.01 µM,> 100 µM,7.4 µM,> 100 µM,< 0.01 µM,> 100 µM,> 100 µM,> 100 µM,2.39 µM,> 100 µM,0.107 µM,> 100 µM,< 0.0152 µM,> 100 µM
CC(=O)Nc1ccc(S(=O)(=O)N2C(=O)CCC2C(=O)Nc2ccc(Br)cc2)cc1 (configuration not stated),1.48 µM,11 µM,2.13 µM,12.2 µM,2.26 µM,13.2 µM,1.89 µM,11.3 µM,3.67 µM,22.1 µM,2.76 µM,21.9 µM,4.49 µM,15.4 µM,2.03 µM,7.47 µM,2.1 µM,9.5 µM,2.76 µM,14.7 µM
CCN1CCN(C(=O)[C@@]2(C)CC[C@]3(C)CC[C@]4(C)C(=CC(=O)[C@@H]5[C@@]6(C)CC[C@H](OC7C[C@@H](O)[C@@H](O)C(C)O7)C(C)(C)[C@@H]6CC[C@]54C)[C@@H]3C2)CC1 (some centres not stated),1.79 µM,7.54 µM,0.91 µM,1.69 µM,10.3 µM,21.3 µM,1.52 µM,5.68 µM,2.26 µM,8.94 µM,1.6 µM,6.18 µM,0.806 µM,1.9 µM,8.75 µM,16.7 µM,1.65 µM,6.52 µM,1.08 µM,2.59 µM
COc1ccccc1/C=N\N/C(N)=N\N=C\c1ccccc1OC,0.254 µM,4.36 µM,2.82 µM,> 53.1 µM,8.31 µM,> 47 µM,1.02 µM,> 39.9 µM,1.03 µM,11.3 µM,0.432 µM,26.9 µM,0.524 µM,8.89 µM,0.157 µM,0.393 µM,4.29 µM,> 23.6 µM,0.382 µM,> 55.8 µM
CCOC(=O)C(C#N)C1=CC(=O)C(=O)c2ccc(OC)cc21 (configuration not stated),–,31.4 µM,–,30.9 µM,–,49.7 µM,–,72.5 µM,–,29.8 µM,–,> 100 µM,–,> 100 µM,–,47.5 µM,–,31.1 µM,–,94.2 µM
Cc1ccc(SC2c3ccc(C)cc3Oc3nc(N)c(C#N)c(N)c32)cc1 (configuration not stated),1.94 µM,4.74 µM,1.63 µM,2.99 µM,1.77 µM,4 µM,1.69 µM,3.08 µM,1.8 µM,3.46 µM,1.83 µM,4.06 µM,1.95 µM,3.39 µM,1.77 µM,3.22 µM,1.8 µM,3.22 µM,2 µM,3.9 µM
COc1ccc(Sc2[nH]c(C(C)=O)c3ccccc23)cc1,12.2 µM,24.6 µM,16.5 µM,49.6 µM,5.66 µM,27.6 µM,11.9 µM,25.1 µM,11.9 µM,24.4 µM,12.9 µM,27.1 µM,15 µM,37.5 µM,12.2 µM,24.6 µM,15.3 µM,33.3 µM,15.4 µM,30.7 µM
C[N+](C)(C)CC1CCCc2ccccc2C1=O (configuration not stated),0.511 µM,5.29 µM and 2.23 µM,–,9.71 µM,–,42.2 µM,–,12.4 µM,–,45 µM,–,53.9 µM,–,36.8 µM,–,17.7 µM,–,32.4 µM,7.65 µM,30.7 µM
